Where “and” joins values, the source holds several entries; their conditions need not be identical. Equal entries are not always repeated.
Assays:
[1] = system: CD31 (endothelium); experiment: Immunofluorescence colocalization (MCC) of VT680-labeled phage with cell marker in CP pancreas; assay type: in vivo, mouse; details: CP pancreas sections
Text: (§1) Immunofluorescence (IF). Post ex vivo imaging, mouse pancreata were submerged in Neg-50 Frozen Section Medium (Thermo Scientific, Waltham, Massachusetts, United States of America) and snap-frozen over liquid nitrogen vapor. The embedded tissues were cut into 5 μm sections using a cryostat (Leica Microsystems Inc., Buffalo Grove, Illinois, United States of America) for subsequent imaging with ZEISS LSM-880 Confocal Laser Scanning Microscope (Carl Zeiss Meditec, Inc., Jena, Germany) at the Advanced Microscopy Facility at the University of Virginia. Cell types of interest in the pancreatitis microenvironment were identified by immunohistochemistry using the following antibodies: rat anti-mouse CD31 at 1:200 dilution (endothelial markers; BD Biosciences, San Jose, California, United States of America), rat anti-mouse CD206 at 1:1000 dilution (M2 macrophage markers; Bio-Rad, Hercules, California, United States of America), rabbit anti-mouse cytokeratin 7 at 1:3000 dilution (CK-7, epithelial markers; Abcam, Cambridge, Massachusetts, United States of America), rabbit anti-mouse collagen IIIa at 1:200 dilution (ECM markers; Abcam, Cambridge, Massachusetts, United States of America), goat anti-mouse carboxypeptidase A1 at 1:200 dilution (CPA1, acini markers; R&D Systems, Inc., Minneapolis, Minnesota, United States of America), rat anti-mouse F4/80 at 1:500 (macrophage markers; Bio-Rad, Hercules, California, United States of America), and FITC-conjugated, mouse anti-mouse α-SMA at 1:200 dilution (MilliporeSigma, St. Louis, Missouri, United States of America). ALEXA FLUOR® 488 (Abcam, Cambridge, Massachusetts, United States of America) antibodies from appropriate species, including donkey anti-goat, donkey anti-rat, donkey anti-rabbit at 1:500 dilution, were used as secondary antibodies to locate the primary antibodies. IF-stained pancreatic sections were mounted with PROLONG™ Gold Antifade Mountant with DAPI (Thermo Fisher Scientific Inc, Waltham, Massachusetts, United States of America, United States of America) for nucleus visualization. IF images were taken on Ziess LSM 880 Confocal Microscope (ZIESS, Oberkochen, Germany) at the Advanced Microscopy Facility at the University of Virginia.
(§2) To identify the cell types that the CP targeting clones were binding, immunofluorescent analysis was performed on common cellular components in the CP microenvironment in the inflamed pancreas sections following in vivo validation of individual clones (FIG. 7). Mander's correlation coefficient (MCC) analysis was performed to determine colocalization of the targeting phage to the cell markers.

[2] = system: CPA-1+ cells (acinar cells); experiment: as above; assay type: in vivo, mouse; details: CP pancreas sections
Text: as §1, §2

[3] = system: αSMA+ cells (activated PSC); experiment: as above; assay type: in vivo, mouse; details: CP pancreas sections
Text: as §1, §2

[4] = system: F4/80+ cells (macrophages); experiment: as above; assay type: in vivo, mouse; details: CP pancreas sections
Text: as §1, §2

[5] = system: CK7 (epithelium); experiment: as above; assay type: in vivo, mouse; details: CP pancreas sections
Text: as §1, §2

[6] = system: collagen IIIa+ cells (ECM); experiment: as above; assay type: in vivo, mouse; details: Col IIIa; CP pancreas sections
Text: as §1, §2

[7] = system: caerulein-induced CP mice (inflamed pancreas) versus healthy mice; experiment: In vivo validation of individual phage clones: ex vivo IVIS fluorescence of organs after co-injection of targeting phage (VT680) and wild type M13Ke phage (VT750); parameters: species or system mouse (C57BL/6J); details: for CP-to-Healthy Ratio (fold change of specificity ratio): Pancreas; for specificity for CP over healthy pancreas: individual clones from Groups 2 and 3
Experimental: C57BL/6 J mice (6-12 week-old, female) were used for the in vivo phage screening. For chronic pancreatitis, caerulein (Bachem, Torrance, California, United States of America) was dissolved in sterile saline and administrated to mice twice a day, 8 hours apart for 14 consecutive days, at a concentration of 250 μg/kg body weight via intraperitoneal injection (Halbrook et al., 2017), as shown in FIG. 1A. During the 14-day course, intraperitoneal injections of 100 μg/kg buprenorphine were given every 3 days to minimize the induced pain. For healthy controls, c57BL/6 J mice were injected intraperitoneally with an equal volume of sterile saline following the same schedule as in the chronic pancreatitis models. […] Picrosirius red (Polysciences, Inc., Warrington, Pennsylvania, United States of America) was used to visualize collagen in paraffin-embedded pancreas sections (FIG. 1B).
Specificity of phage clones. After PHASTpep analysis and candidate clone selections, 18 candidate clones were grouped (4-5 clones per group, 4 groups total) based on sequence similarity using GibbsCluster Server 2.0 (Andreatta et al., 2017). by the Technical University of Denmark (FIG. 2). […] For each group, the fluorescently labeled candidate and WT phage were mixed and co-injected in CP and healthy mice (n=5) Phage accumulation was determined by measuring the ex vivo fluorescent intensity of the pancreas at 20 hours post-injection using the Fluorescent Molecular Tomography (FMT, PerkinElmer, Waltham, Massachusetts, United States of America) using the excitation and emission wavelength at 675 nm/720 nm for VT680 and 745 nm/800 nm for VT750. To account for variations of fluorescent labeling efficiency, the raw readouts of VT680 and VT750 were normalized to the dye-per-phage ratio (see Table 3 below).
The specificity ratio was calculated as % ID/g of the normalized VT680 divided by the % ID/g of the normalized VT750 (see Equation (1)). Quantifications are included in Table 4.
A similar procedure was applied to determine the specificity of individual phage clones in Groups 2 and 3. Candidate clones were labeled with VivioTag 680 (VT680, PerkinElmer, Waltham, MA) to match the detectable wavelength of the IVIS Spectrum Series (Perkin Elmer, Waltham, Massachusetts, United States of America). Fluorescent intensity was measured at 20 hours post-injection of candidate phage (VT680) and WT phage (VT750). Fold change of specificity ratio was calculated as the specificity ratio of CP mice divided by the specificity ratio of the healthy mouse (see Table 5).

[8] = system: cellular components in the CP microenvironment; experiment: Cellular selectivity of phage clones: one-way ANOVA and Tukey-Kramer comparison of MCC of all cell markers; assay type: in vivo, mouse; details: for Cell type the phage clone shows specificity to / Marker the phage clone shows specificity to: CP microenvironment; for Colocalized Markers (p < 0.05) / Corresponding Cellular Components: statistically significant selectivity for a single cellular component in CP
Text: as §1
Statistical analysis. Statistical analysis of the data was performed by student t-test, one-way analysis of variance (ANOVA), and Tukey-Kramer test. All data presented are expressed as mean+standard error of at least three independent measurements. For all comparisons, p-values<0.05 were considered significant.
as §2

Row | Substance | Mean Manders' Correlation Coefficient (MCC), fraction of phage overlapping cell marker [1] | Mean Manders' Correlation Coefficient (MCC), fraction of phage overlapping cell marker [2] | Mean Manders' Correlation Coefficient (MCC), fraction of phage overlapping cell marker [3] | Mean Manders' Correlation Coefficient (MCC), fraction of phage overlapping cell marker [4] | Mean Manders' Correlation Coefficient (MCC), fraction of phage overlapping cell marker [5] | Mean Manders' Correlation Coefficient (MCC), fraction of phage overlapping cell marker [6] | Radiant efficiency Targeting:M13Ke ([7]; CP mouse, liver) | Radiant efficiency Targeting:M13Ke ([7]; CP mouse, pancreas) | Radiant efficiency Targeting:M13Ke ([7]; CP mouse, spleen) | CP-to-Healthy Ratio ([7]; Liver) | CP-to-Healthy Ratio (fold change of specificity ratio) [7] | CP-to-Healthy Ratio ([7]; Spleen) | Radiant efficiency Targeting:M13Ke ([7]; healthy mouse, liver) | Radiant efficiency Targeting:M13Ke ([7]; healthy mouse, pancreas) | Radiant efficiency Targeting:M13Ke ([7]; healthy mouse, spleen) | specificity for CP over healthy pancreas [7] | Cell type the phage clone shows specificity to [8] | Marker the phage clone shows specificity to [8] | Colocalized Markers (p < 0.05) [8] | Corresponding Cellular Components [8]
1 | HPYSPLR [7-mer peptide, candidate phage clone from Groups 2 and 3] | 0.35 | 0.25 | 0.13 | 0.41 | 0.08 | 0.27 | 0.59 | 6.42 | 3.10 | 0.744 | 1.544 | 1.138 | 0.80 | 4.16 | 2.73 | increased specificity for CP over healthy pancreas |  |  |  | 
2 | HSGLNKQ (displayed on phage) [7-mer peptide, candidate phage clone selected by motif clustering analysis] |  |  |  |  |  |  | 0.63 | 6.07 | 3.42 | 1.254 | 0.611 | 1.157 | 0.50 | 9.93 | 2.96 |  |  |  |  | 
3 | KTYVPTT (displayed on phage) | 0.20 | 0.26 | 0.521±0.067 and 0.52 | 0.31 | 0.06 | 0.23 | 0.61 | 11.90 | 3.05 | 1.161 | 1.362 | 0.890 | 0.53 | 8.74 | 3.43 | increased specificity for CP over healthy pancreas | aPSC | α-SMA^+ | α-SMA | aPSC
4 | MDLSLKP (displayed on phage) | 0.20 | 0.31 | 0.16 | 0.46 | 0.06 | 0.828±0.089 and 0.83 | 0.72 | 10.85 | 2.70 | 1.370 | 1.875 | 1.156 | 0.52 | 5.79 | 2.34 | increased specificity for CP over healthy pancreas | ECM | Collagen | Collagen | ECM
5 | SANITNL (displayed on phage) [7-mer peptide, candidate phage clone selected by replicability between libraries] |  |  |  |  |  |  | 0.74 | 4.02 | 4.60 | 1.287 | 0.943 | 1.518 | 0.58 | 4.27 | 3.03 |  |  |  |  | 
6 | SLPLGPM (displayed on phage) [7-mer peptide, candidate phage clone from Groups 2 and 3] | 0.25 | 0.35 | 0.15 | 0.49 | 0.06 | 0.23 | 0.64 | 6.42 | 3.49 | 0.921 | 1.286 | 1.215 | 0.69 | 5.00 | 2.87 | increased specificity for CP over healthy pancreas |  |  |  | 

From patent US20240115729A1, “COMPOSITIONS AND METHODS FOR TARGETED ANTIFIBROTIC THERAPY IN CHRONIC PANCREATITIS” (University of Virginia Patent Foundation, priority 2021, published 2024)
